The values below come from patent US6709676B2, “Extended release oral dosage composition” (Schering Corporation, priority 1999, dated 2004).

This assay concerns allergic bronchospasm and cough. The experiment in a line: in vivo studies of allergic bronchospasm and cough.

On to `Clc1ccc2c(c1)CCc1cccnc1C2=C1CCNCC1` [desloratadine, Desloratadine], for which the “effect on allergic bronchospasm and cough” value is reported as “inhibitory effect”.
